According to patent US20050154060A1, “Anti-inflamatory inhalation pharmaceutical composition” (Galephar Pharmaceutical Research, Inc., priority 2003, published 2005):

Legend:
interleukine 6 (IL-6) = experiment: Sputum IL-6 in 12-week placebo controlled study of NAL DPI in COPD patients; type: in vivo, human (COPD patients); conditions: for concentration in IL-6 decreased by: sputum, after 12 weeks of treatment
Protocol: (§1) A new clinical trial has been performed with a dry powder inhaler (DPI) formulation of NAL in moderate to severely ill COPD patients. The study was performed with two doses of NAL DPI: 20 mg twice a day and 40 mg twice a day versus placebo.
(§2) The complete title of the study was “A 12-week, multicentre, randomised, double-blind, placebo controlled, pilot study of the safety and efficacy of Nacystelyn (20 mg b.i.d. and 40 mg b.i.d.) in patients with chronic obstructive pulmonary disease (COPD).”
(§3) NAL pulmonary administration was performed using a Dry Powder Inhaler consisting of a capsule containing NAL and a carrier, and of an inhalation device.
(§4) During the same study, sputum of COPD patients was collected at baseline (T0), after 4 weeks (w4) and after 12 weeks of treatment (T12).
(§5) The purpose of collecting sputum was to assess if NAL DPI administration could affect (increase or decrease) lung inflammation parameters in such patients. Lung inflammation may be reflected by the sputum concentration of some pro-inflammatory markers, called cytokines, such as interleukine 6 (IL-6) and interleukine 8 (IL-8) or anti-inflammatory markers, such as interleukine 10 (IL-10).
(§6) After collection of the mucus, the said mucus was centrifugated and the cytokines IL-8 and IL-6 were quantified using a validated analytical method. It should be noted that only subjects presenting a quantifiable value of cytokines at the time considered were taken into account.

interleukine 8 (IL-8) = experiment: Sputum IL-8 in 12-week placebo controlled study of NAL DPI in COPD patients; type: in vivo, human (COPD patients)
Protocol: as §1, §2, §3, §4, §5, §6

[1] = sputum of COPD patients, NAL DPI 20 mg twice a day, week 4
[2] = sputum of COPD patients, NAL DPI 20 mg twice a day, week 12
[3] = sputum of COPD patients, NAL DPI 40 mg twice a day, week 4
[4] = sputum of COPD patients, NAL DPI 40 mg twice a day, week 12

In the case of `CC(=O)N[C@@H](CS)C(=O)O.NCCCC[C@H](N)C(=O)O` [NAL, L-Lysine-N-Acetylcysteinate], the “effect on IL-6 in sputum (in words)” value (interleukine 6 (IL-6); sputum of COPD patients, 20 mg and 40 mg twice a day) is reported as “decrease of IL-6 in the sputum of COPD patients in a dose related manner”, the “change in inflammatory marker IL-6, percent change versus baseline” value (interleukine 6 (IL-6); [1]) is reported as 24% and the “change in inflammatory marker IL-6, percent change versus baseline” value (interleukine 6 (IL-6); [2]) is reported as −17%. The “change in inflammatory marker IL-6, percent change versus baseline” value (interleukine 6 (IL-6); [3]) was 70%, the “change in inflammatory marker IL-6, percent change versus baseline” value (interleukine 6 (IL-6); [4]) was −42% and the “concentration in IL-6 decreased by” value (interleukine 6 (IL-6); NAL 20 mg) was 17%. For the same compound, the “concentration in IL-6 decreased by” value (interleukine 6 (IL-6); NAL 40 mg) was 42%, the “effect on IL-8 levels in sputum (in words)” value (interleukine 8 (IL-8); sputum of COPD patients) was “significantly decrease the IL-8 levels in the sputum” and the “change in inflammatory marker IL-8, percent change versus baseline” value (interleukine 8 (IL-8); [1]) was −13%. The “change in inflammatory marker IL-8, percent change versus baseline” value (interleukine 8 (IL-8); [2]) was −17%, the “change in inflammatory marker IL-8, percent change versus baseline” value (interleukine 8 (IL-8); [3]) was −2% and the “change in inflammatory marker IL-8, percent change versus baseline” value (interleukine 8 (IL-8); [4]) was “+3%”. For the same compound, the “levels of IL-8 decreased by” value (interleukine 8 (IL-8); sputum, after 12 weeks of treatment, NAL 20 mg) was 17% and the “levels of IL-8 increased by” value (interleukine 8 (IL-8); sputum, after 12 weeks of treatment, NAL 40 mg) was 3%.
